Data set [1] deals with C. albicans SC5314. In words: Minimal inhibitory concentration (MIC), C. albicans SC5314. Type of data set: cell-based. How it is done:
(§1) C. albicans cells, laboratory strain SC5314 or ATCC90028, were cultured on solid BHI (Oxoid) medium at 37° C. for 24 hours and stored at 4° C. for up to one month. Prior to experiments, a colony of C. albicans was sub-cultured into liquid BHI medium overnight at 37° C.
(§2) C. albicans cells, laboratory strain SC5314 or ATCC90028, were cultured on solid BHI (Oxoid) medium at 37° C. for 24 hours and stored at 4° C. for up to one month. Prior to experiments, a colony of C. albicans was sub-cultured into liquid BHI medium overnight at 37° C. Overnight cultures of C. albicans were adjusted to an optical density at 600 nm of 0.1 and incubated with Amphotericin polymers, which were serially diluted 1:2 from 2500-2.44 μg/ml, for 16 hours in a 96 well plate. The concentration of polymer at which there was no visible growth was determined to be the MIC. C. albicans (Robin) ATCC200955, C. tropicalis ATCC200956, A. flavus ATCC16883 and F. keratoplasticum ATCC36031 were similarly cultured on solid Sabrauds (Oxoid) medium at 37° C. for 24 hours and stored at 4° C. for up to one month. Prior to experiments, colonies were sub-cultured into liquid Sabrauds medium overnight at 37° C. All liquid cultures were static apart from A. flavus which was incubated shaking at 100 rpm.

For data set [2], the system named is C. albicans ATCC90028. In words: Minimal inhibitory concentration (MIC), C. albicans ATCC90028. The data set is classed as cell-based. How it is done: as §1, §2
Data set [3] relates to C. albicans (Robin) ATCC200955. Kind of data set: Minimal inhibitory concentration (MIC), C. albicans ATCC200955. The data set is classed as cell-based. To be noted: C. albicans ATCC200955 (Amp-B non-sensitive); Table 3b. How it is done: as §2
The test system of data set [4] is C. tropicalis ATCC200956. In words: Minimal inhibitory concentration (MIC), C. tropicalis ATCC200956. The data set is classed as cell-based. To be noted: C. tropicalis ATCC200956 (Amp-B non-sensitive); Table 3b. How it is done: as §2, with “Overnight cultures of C. albicans were adjusted to an optical density at 600 nm of 0.1 and incubated with Amphotericin polymers, which were serially diluted 1:2 from 2500-2.44 μg/ml, for 16 hours in a 96 well plate.” left out

In data set [5] the test system is Aspergillus flavus ATCC16883. Kind of data set: Minimal inhibitory concentration (MIC), A. flavus ATCC16883. Type of data set: cell-based. Particulars: A. flavus ATCC 16883. How it is done: as §2
For data set [6], the system named is Fusarium keratoplasticum ATCC36031. In words: Minimal inhibitory concentration (MIC), F. keratoplasticum ATCC36031. Type of data set: cell-based. Particulars: F. keratoplasticum ATCC 36031. How it is done:
as §2

The test system of data set [7] is human donor corneas. To be noted: 2.5 ma ml^−1, Alamar Blue, p<0.01. Background: The colour change of resazurin is a common sign of viable cells or microbes.
Protocol: Epithelial cell/cornea viability was determined using Alamar Blue reagent (5 μg ml^−1) dissolved in PBS. Cells/corneas were incubated with Alamar Blue for 30 minutes and the fluorescence of the solution determined at 570 nm excitation and 585 nm emission (Infinite 200, Tecan). Data for each polymer is presented as percentage viability relative to an untreated control. Each assay was performed in triplicate and data represents the mean±SD from three independent experiments.
The examination of the cytotoxicity was further examined on ex vivo human corneas.
For data set [8] the following is noted: literature range; cited from earlier work.
The conditions of data set [9]: physiological pH; stated as well known; cited from earlier work.
In data set [10] the test system is rabbit limbal epithelial cells. In words: Rabbit limbal epithelial cell viability (Alamar Blue). Particulars: p<0.01.
Protocol: Tissue was immersed in 2.5 mg ml^−1 (w/v) dispase II solution in DMEM for 1 hour at 37° C. The limbal rims were subsequently scraped gently using forceps to remove the epithelial cells. The dispase-cell suspension was centrifuged at 200 g for 5 minutes and re-suspended in culture medium containing DMEM: Ham's F12 (1:1) supplemented with 10% foetal calf serum, 100 U ml^−1 penicillin and 100 U ml^−1 streptomycin, 2.5 μg ml^−1 Amp−B, 5 μg ml^−1 insulin and 10 ng ml^−1 epidermal growth factor. Cells were cultured with irradiated 3T3-mouse fibroblasts at a cell density of 2.4×10^4 cells cm^−2 in culture medium. Cells were not used beyond passage 3. For experiments, cells were seeded into 24 well-plates at 5×10^4 cells per well and cultured for 24 hours.
Prior to determining the viability of rabbit limbal epithelial cells, cells were washed 3× with phosphate-buffered saline (PBS, 0.01M, pH 7.4) to remove residual antimicrobials. […] Epithelial cell/cornea viability was determined using Alamar Blue reagent (5 μg ml^−1) dissolved in PBS. Cells/corneas were incubated with Alamar Blue for 30 minutes and the fluorescence of the solution determined at 570 nm excitation and 585 nm emission (Infinite 200, Tecan). Data for each polymer is presented as percentage viability relative to an untreated control. […]
[11] abbreviates: from weight based MIC and molar density.

Where only a bound is given, the exact number is not on record here.

Turning to `C[C@@H]1[C@H](O)[C@@H](C)/C=C/C=C/C=C/C=C/C=C/C=C/C=C/[C@H](O[C@@H]2O[C@H](C)[C@@H](O)[C@H](N)[C@@H]2O)C[C@@H]2O[C@](O)(C[C@@H](O)C[C@@H](O)[C@H](O)CC[C@@H](O)C[C@@H](O)CC(=O)O[C@H]1C)C[C@H](O)[C@H]2C(=O)O` [Amp-B, amphotericin B], the “Weight based MIC” value in [1] (Table 3b) was 0.4 µg·mL; in [2] (Table 3b), 0.5 µg·mL; in [3], over 2500 µg·mL; in [4], over 2500 µg·mL; in data set [5] (Table 3b), 1.5 µg·mL; in data set [6] (Table 3b) it was 0.2 µg·mL. The “Molar MIC” value in data set [1] (from weight based MIC and molar density of Amp-B groups) is 500 µM; in data set [2] (setting [11]), 4800 µM; in [5] (setting [11]), 1800 µM; in [6] (setting [11]), 250 µM. In addition, the “Loss of corneal viability” value in data set [7] is reported as “approximately 95%”. The “MIC for Amp-B” value in [8] was 0.625 to 4 µg/mL. The “Solubility in water and saline solution” value in data set [9] is recorded as “insoluble”. In data set [10] (100 μg ml^−1, 24 hours), the “Metabolic activity of cells compared with the cell only control” value is on record as 42.8±13.9%. Also, the “Decrease in epithelial cell viability relative to a cell only control” value in [10] (1 mg ml^−1, 24 hours) was “approximately 91.7%”.

These data come from patent US20210228734A1, “CONJUGATES COMPRISING A TEMPERATURE-RESPONSIVE POLYMER AND A LIGAND CAPABLE OF BINDING ERGOSTEROL” (L V PRASAD EYE INSTITUTE, priority 2018, published 2021).
